Broadly, the MIC is the lowest concentration found to suppress growth. High values mean a need for much substance, low ones inhibition by little substance.

≈ marks a conversion by molar mass, not a printed value.

Format in all cases: cell-based
The subject of one assay is Streptococcus pneumoniae. Kind of assay: Agar Dilution Test (NCCLS), MIC. Conditions: against Streptococcus pneumoniae.
In a further assay the test system is Pseudomonas aeruginosa. As to the kind of experiment: Antibacterial activity.
Assay [1] relates to Staphylococcus aureus (MSSA). Kind of assay: Agar Dilution Test (NCCLS), MIC. The settings on record: against Staphylococcus aureus (MSSA). For orientation: In agar dilution, organisms are placed on agar that contains the substance at set levels.
The subject of another assay is Klebsiella. As to the kind of experiment: Agar Dilution Test (NCCLS), MIC. The settings on record: against Klebsiella.
The subject of the next assay is Klebsiella pneumoniae. As to the kind of experiment: Agar Dilution Test (NCCLS), MIC. The settings on record: against Klebsiella pneumoniae.

In the case of `CN(/N=C/C1=C(C(=O)O)N2C(=O)[C@@H](NC(=O)/C(=N\OCF)c3nsc(N)n3)C2SC1)C(=N)N[C@H]1CC[C@H](N)CC1` (stereo partly drawn) [Example 1, 3-{(E)[[1-trans-(4-Amino-cyclohexylamino)-iminomethyl]-methylhydrazono]methyl}-7-{[(5-amino-1,2,4-thiadiazol-3-yl)-(Z)-(fluoromethoxyimino)-acetyl]amino}-3-cephem-4-carboxylic acid], the minimum inhibitory concentration (MIC) in the assay with Streptococcus pneumoniae was about 0.0125 µg/mL (≈ 0.0209 µM); in assay [1], 0.05 to 0.2 µg/mL (≈ 0.0837 to 0.335 µM); against Klebsiella it was 0.0125 to 0.8 µg/mL (≈ 0.0209 to 1.34 µM); against Klebsiella pneumoniae it was about 0.0125 µg/mL (≈ 0.0209 µM). Also, in the assay on Pseudomonas aeruginosa, the “activity against Pseudomonas aeruginosa” value is on record as “shows activtiy”.

The record behind these values is patent US7485632B2, “Cephalosporins” (Nabriva Therapeutics Forschungs GmbH, priority 2002, dated 2009).
